In patent US20240270758A1, “PYRIDINO-OR PYRIMIDO-CYCLIC COMPOUND, PREPARATION METHOD THEREFOR AND MEDICAL USE THEREOF” (Genfleet Therapeutics (Shanghai) Inc., priority 2021, published 2024) one finds IC50 data, which are given here for eleven compounds.

Experiment [1] has as its system AGS cells (KRAS^G12D mutation). In words: Cell proliferation inhibition assay (3D, CellTiter-Glo), AGS. The following applies: 3D cell model, 5 days. Format: cell-based, human. The source says:
(§1) AsPC-1 was purchased from ATCC; Cat. NO.: CRL-1682; AGS was purchased from ATCC; Cat. NO.: CRL-1739; RPMI1640 was purchased from Gibco; Cat. NO.: 11875-093 2235123; F12K was purchased from Gibco; Cat. NO.: 21127-022; FBS was purchased from Gibco; Cat. NO.: 10099-141C; Trypsin (containing EDTA) was purchased from Gibco; Cat. NO.: 25200-072; CellTiter Glo-3D was purchased from Progema; Cat. NO.: G9683; 384-well sphere plates were purchased from coming; Cat. NO.: 3830; White background opaque 384-well plates were purchased from coming; Cat. NO.: 3570; Cell Counters were purchased from CHEMOMETEC; Model NO.: NC-200; microplate reader was purchased from PerkinElmer; Model NO.: Envison;
(§2) AsPC-1 is an endogenous human pancreatic cancer cell containing KRAS^G12D mutation, which is cultured in RPMI-1640 medium containing 10% FBS; AGS human gastric cancer cell line containing KRAS^G12D mutation, cultured in F-12K medium containing 10% FBS. Cells in the logarithmic growth phase were taken, digested with trypsin (containing EDTA), harvested and counted, and inoculated with 800 AsPC-1 cells/well or 400 AGS cells/well, respectively, in 384-well sphere plates and cultured overnight at 5% C02 to establish a 3D cell model. A 3.16-fold gradient concentration stock solution of 1000× compound was prepared using DMSO, diluted 100-fold into a 10× compound stock solution using media, and a 10× compound stock solution was added to each cell culture well the day after cell inoculating at a final concentration of 1× with a DMSO content of 0.1%. DMSO was used as an experimental control (control) and culture medium as a blank control (blank). After the addition of compounds, the cells were cultured for 5 days. […] CellTiter-Glo working solution was added to each well, mixed well, and incubated for 30 min. After standing for 30 min at room temperature, 40 μl of the mixed solution was transferred to a white background opaque 384-well plate. Luminescence chemiluminescence value was read on a microplate reader, and the cell proliferation inhibition ratio was calculated, IR (%)=(RLU control-RLU compound)/(RLU control-RLU blank)×100%. XLFit four-parameter method was used to fit the gradient dilution concentration of compounds and the corresponding cell proliferation inhibition ratio, and the IC50 value was calculated. […] Results for exemplary of the example compounds are shown in Table 3 below. - indicates not detected.

Experiment [2] deals with KRAS^G12D mutant protein binding to RBD region fragment of RAF1 protein (Homo sapiens (Human), UniProt P01116, G12D). In words: KRAS-RAF1 binding assay (HTRF), KRAS G12D. The following applies: His-KRAS^G12D, GST-RAF1-RBD, GTP. How it is done:
(§3) GST-RAF1-RBD was purchased from BPS Bioscience; Cat. NO.: 100519; KRAS^G12D was purchased from BPS Bioscience; Cat. NO.: 100623; KRAS^wt was purchased from Reactionbiology; GTP was purchased from Sigma; Cat. NO.: G8877; Mab Anti GST-XL665 was purchased from cisbio; Cat. NO.: 61GSTXLF; Eu-W1024-anti-6×HIS was purchased from PE; Cat. NO.: AD0111; ProxiPlate-384-Plates was purchased from PerkinElmer; Cat. NO.: 6008289; DMSO was purchased from VWR AMRESCO; Cat. NO.: 0231-500ML; microplate reader was purchased from PerkinElmer; Cat. NO.: Envison;
(§4) This experiment is intended to investigate the inhibitory effect of compounds on the binding of KRAS^G12D mutant protein or KRAS^Wt (wild type) protein to fragments of the RBD region fragment of RAF1 protein. A 500×3-fold gradient concentration stock of compound was prepared using DMSO and diluted 50-fold into a 10× stock of compound using reaction buffer. To the reaction wells of an ELISA plate (ProxiPlate-384-Plates), was first added 3 µL of His-KRAS^G12D protein or KRAS^wt protein, then added 1 μL of 200 µM GTP and incubated for 30 min, then added 2 μL of 10× compound or reaction buffer with 2% DMSO (positive control) and incubated for 30 min, then added 4 μL of GST-RAF1-RBD protein or reaction buffer (negative control) and incubated for 15 min, then added […] anti-His antibody and XL665-labeled anti-GST antibody mixed well in advance and incubated for 60 min before reading HTRF signal by microplate reader. The inhibition ratio of compounds on KRAS protein (G12D mutant or wild type) and RAF1 binding was calculated IR (%)=(positive control signal-compound well signal)/(positive control signal-negative control signal)×100% and IC50 values were calculated by fitting compound concentrations and corresponding inhibition ratios using the Prism 8 four-parameter method. […] While the inhibition IC50 values of the compounds on the binding of KRAS^wt (wild type) protein to the RBD region fragment of RAF1 protein was more than 40 nM or 100 nM, or more than 500 nM, or even more than 1 μM or 2 μM.

Experiment [3] concerns p-ERK in AGS cells (KRAS^G12D mutation). Briefly: Cell p-ERK detection assay. The experiment is classed as cell-based, human. The following applies: 3 h incubation, HTRF. Summed up: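 AGS cells (KRAS G12D, ~20,000/well in F12K+10% FBS) treated next day with compound at 3.16-fold dilutions, 0.1% DMSO final, for 3 h. Lysates assayed for ERK phospho-T202/Y204 by HTRF after 4 h; inhibition vs DMSO and blank, IC50 from four-parameter fit.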

The target in experiment [4] is KRAS^wt (wild type) protein binding to RBD region fragment of RAF1 protein (Homo sapiens (Human), UniProt P01116). Briefly: KRAS-RAF1 binding assay (HTRF), KRAS wild type. The conditions noted are these: GST-RAF1-RBD, GTP. How it is done:
as §3, §4

Experiment [5] has as its system AsPC-1 cells (KRAS^G12D mutation). In words: Cell proliferation inhibition assay (3D, CellTiter-Glo), AsPC-1. The conditions noted are these: 3D cell model, 5 days. Format: cell-based, human.
Excerpt: as §1, §2

Some results are limits rather than exact numbers.

Chain of KRAS^G12D mutant protein binding to RBD region fragment of RAF1 protein (P01116-2 other isoform, or with tags, fused parts or gaps G12D): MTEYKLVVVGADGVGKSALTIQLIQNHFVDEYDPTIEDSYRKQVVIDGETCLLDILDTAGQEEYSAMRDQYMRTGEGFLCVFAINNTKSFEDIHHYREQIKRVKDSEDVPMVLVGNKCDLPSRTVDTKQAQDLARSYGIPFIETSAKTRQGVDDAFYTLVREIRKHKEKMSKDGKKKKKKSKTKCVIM
Chain of KRAS^wt (wild type) protein binding to RBD region fragment of RAF1 protein (P01116-2 other isoform, or with tags, fused parts or gaps): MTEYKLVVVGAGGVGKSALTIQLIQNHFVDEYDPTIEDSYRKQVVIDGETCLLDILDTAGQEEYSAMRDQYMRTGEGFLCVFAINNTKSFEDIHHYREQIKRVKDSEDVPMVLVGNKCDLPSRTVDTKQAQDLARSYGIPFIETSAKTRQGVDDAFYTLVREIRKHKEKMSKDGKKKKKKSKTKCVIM

Regarding `C#Cc1c(F)ccc2cc(O)cc(-c3ncc4c(N5C[C@H]6CC[C@@H](C5)N6)nc(OCC56CCCN5CC(=C)C6)nc4c3F)c12` (stereo partly drawn) [Example Z3], the IC50 in experiment [1] worked out at 0.003 µM; in experiment [2], 0.0162 µM; in experiment [3], 0.00211 µM; in experiment [4], 0.0645 µM; in experiment [5], 0.016 µM.

As to `C#Cc1cccc2cc(O)cc(-c3ncc4c(N5C[C@H]6CC[C@@H](C5)N6)nc(OCC56CC(=C)CN5CC(F)C6)nc4c3F)c12` (stereo partly drawn) [Example Z17, 4-(4-((1R,5S)-3,8-diazabicyclo[3.2.1]octan-3-yl)-8-fluoro-2-((2-fluoro-6-methylenetetrahydro-1H-pyrrolizine 7a(5H)-yl)methoxy)pyrido[4,3-d]pyrimidin-7-yl)-5-ethynylnaphthalen-2-ol], the IC50 in experiment [1] (Homo sapiens, AGS, 120 h) was found to be 0.0068 µM; in experiment [2] it was 0.05 µM; in experiment [3] (Homo sapiens, AGS, 3 h), 0.00116 µM; in experiment [4] it was 0.0643 µM; in experiment [5] (Homo sapiens, ASPC1, 120 h) it was 0.0357 µM.

Regarding `C=C1CN2CCCC2(COc2nc(N3C[C@H]4CC[C@@H](C3)N4)c3cnc(-c4cc(O)cc5cccc(CC)c45)c(F)c3n2)C1` (stereo partly drawn) [Example Z11, 4-(4-((1R,5S)-3,8-diazabicyclo[3.2.1]octan-3-yl)-8-fluoro-2-((2-methylenetetrahydro-1H-pyrrolizin-7a(5H)-yl)methoxy)pyrido[4,3-d]pyrimidin-7-yl)-5-ethylnaphthalen-2-ol], the concentration for half-maximal inhibition (IC50) in experiment [1] (Homo sapiens, AGS, 120 h) worked out at 0.0025 µM; in experiment [2], 0.0459 µM; in experiment [3] (Homo sapiens, AGS, 3 h), 0.00491 µM; in experiment [4], 0.263 µM; in experiment [5] (Homo sapiens, ASPC1, 120 h), 0.0506 µM.

Consider `C#Cc1c(F)ccc2cc(O)cc(-c3ccc4c(N5C[C@H]6CC[C@@H](C5)N6)nc(OCC56CCCN5CCC6)nc4c3F)c12` [Example Z9, 4-(4-((1R,5S)-3,8-diazabicyclo[3.2.1]octan-3-yl)-8-fluoro-2-((tetrahydro-1H-pyrrolizin-7a(5H)-yl)methoxy)quinazolin-7-yl)-5-ethynyl-6-fluoronaphthalen-2-ol], for which the IC50 was determined as 0.145 µM in experiment [1] (Homo sapiens, AGS, 120 h); 0.0796 µM in experiment [2]; 0.0237 µM in experiment [3] (Homo sapiens, AGS, 3 h); 0.261 µM in experiment [4]; 0.3 µM in experiment [5] (Homo sapiens, ASPC1, 120 h).

For `C#Cc1cccc2cc(O)cc(-c3ncc4c(N5C[C@H]6CC[C@@H](C5)N6)nc(OCC56CCCN5CC(=C(C)C)C6)nc4c3F)c12` (stereo partly drawn) [Example Z14, 4-(4-((1R,5S)-3,8-diazabicyclo[3.2.1]octan-3-yl)-8-fluoro-2-((2-(propan-2-ylidene)tetrahydro-1H-pyrrolizin-7a(5H)-yl)methoxy)pyrido[4,3-d]pyrimidin-7-yl)-5-ethynylnaphthalen-2-ol], the IC50 in experiment [1] (Homo sapiens, AGS, 120 h) was determined as 0.0274 µM; in experiment [2] it was 0.0396 µM; in experiment [3] (Homo sapiens, AGS, 3 h), 0.0101 µM; in experiment [4] it was 0.11 µM; in experiment [5] (Homo sapiens, ASPC1, 120 h), 0.143 µM.

Consider `C#Cc1cccc2cc(O)cc(-c3ncc4c(N5C[C@H]6CC[C@@H](C5)N6)nc(OCC56CCN5CC(=C)C6)nc4c3F)c12` (stereo partly drawn) [Example Z19, 4-(4-((1R,5S)-3,8-diazabicyclo[3.2.1]octan-3-yl)-8-fluoro-2-((3-methylene-1-azabicyclo[3.2.0]heptan-5-yl)methoxy)pyrido[4,3-d]pyrimidin-7-yl)-5-ethynylnaphthalen-2-ol], for which the IC50 in experiment [1] (Homo sapiens, AGS, 120 h) is 0.0317 µM; in experiment [2] it was 0.046 µM; in experiment [3] (Homo sapiens, AGS, 3 h), 0.00903 µM; in experiment [4], 0.0678 µM; in experiment [5] (Homo sapiens, ASPC1, 120 h), 0.0683 µM.

For `C#Cc1cccc2cc(O)cc(-c3ncc4c(N5C[C@H]6C=C[C@@H](C5)N6)nc(OCC56CCCN5CC(F)(F)C6)nc4c3F)c12` (stereo partly drawn) [Example Z15, 4-(4-((1R,5S)-3,8-diazabicyclo[3.2.1]oct-6-en-3-yl)-2-((2,2-difluorotetrahydro-1H-pyrrolizin-7a(5H)-yl)methoxy)-8-fluoropyrido[4,3-d]pyrimidin-7-yl)-5-ethynylnaphthalen-2-ol], the IC50 is 0.194 µM in experiment [1] (Homo sapiens, AGS, 120 h); 0.033 µM in experiment [2]; 0.0607 µM in experiment [3] (Homo sapiens, AGS, 3 h); over 3 µM in experiment [4]; 0.947 µM in experiment [5] (Homo sapiens, ASPC1, 120 h).

Regarding `C#Cc1cccc2cc(O)cc(-c3ncc4c(N5C[C@H]6CC[C@@H](C5)N6)nc(OCC56CCCN5CC(=CF)C6)nc4c3F)c12` (stereo partly drawn) [Example Z5, 4-(4-((1R,5S)-3,8-diazabicyclo[3.2.1]octan-3-yl)-8-fluoro-2-((2-(fluoromethylene)tetrahydro-1H-pyrrolizin-7a(5H)-yl)methoxy)pyrido[4,3-d]pyrimidin-7-yl)-5-ethynylnaphthalen-2-ol], the IC50 in experiment [1] (Homo sapiens, AGS, 120 h) was determined as 0.0045 µM; in experiment [2], 0.0363 µM; in experiment [3] (Homo sapiens, AGS, 3 h), 0.00116 µM; in experiment [4] it was 0.0437 µM; in experiment [5] (Homo sapiens, ASPC1, 120 h) it was 0.0294 µM.

`C#Cc1cccc2cc(O)cc(-c3ncc4c(N5C[C@@H]6N[C@H](C5)[C@@H]5C[C@@H]56)nc(OCC56CCCN5CCC6)nc4c3F)c12` [Example Z10, 5-ethynyl-4-(8-fluoro-2-((tetrahydro-1H-pyrrolizin-7a(5H)-yl)methoxy)-4-((1R, 2S, 4R, 5S)-7,9-diazatricyclo[3.3.1.0^2,4]nonan-7-yl)pyrido[4,3-d]pyrimidin-7-yl)naphthalen-2-ol]: the IC50 came to 0.0629 µM in experiment [2]; 0.215 µM in experiment [3] (Homo sapiens, AGS, 3 h); 0.119 µM in experiment [4].

With `C#Cc1cccc2cccc(-c3ncc4c(N5C[C@H]6C=C[C@@H](C5)N6)nc(OCC56CCCN5CCC6)nc4c3F)c12` [Example Z6, 4-((1R,5S)-3,8-diazabicyclo[3.2.1]oct-6-en-3-yl)-7-(8-ethynylnaphthalen-1-yl)-8-fluoro-2-((tetrahydro-1H-pyrrolizin-7a(5H)-yl)methoxy)pyrido[4,3-d]pyrimidine], the 50% inhibitory concentration (IC50) is 0.815 µM in experiment [1] (Homo sapiens, AGS, 120 h); 0.0516 µM in experiment [2]; 0.426 µM in experiment [3] (Homo sapiens, AGS, 3 h); over 10 µM in experiment [4].

For `C#Cc1cccc2cc(O)cc(-c3ncc4c(N5C[C@H]6C=C[C@@H](C5)N6)nc(OCC56CCCN5CCC6)nc4c3F)c12` [Example Z4, 4-(4-((1R,5S)-3,8-diazabicyclo[3.2.1]oct-6-en-3-yl)-8-fluoro-2-((tetrahydro-1H-pyrrolizin-7a(5H)-yl)methoxy)pyrido[4,3-d]pyrimidin-7-yl)-5-ethynylnaphthalen-2-ol], the IC50 in experiment [1] (Homo sapiens, AGS, 120 h) is 0.36 µM; in experiment [2], 0.0206 µM; in experiment [3] (Homo sapiens, AGS, 3 h), 0.0471 µM; in experiment [4] it was 0.393 µM.
